According to US11685724B2, “Synthetic intermediates for novel cannabinoids and cannabinoid acids and their derivatives” (priority 2018, dated 2023):
Read-outs that look alike come from different tables or passages of the source.

Columns and labels:
TRPV1 channels = experiment: Calcium assay of TRPV1 channel activity in HEK-TRPV1 cells; assay type: cell-based; details: Fluo-4 loaded, 1 mM external calcium chloride, 0-20 seconds baseline, compound added at 20 seconds, FIGS. 1A-1D
Protocol: Molecular Pharmacology, 2016, volume 90, pages 300-308) HEK 293 cells with TRPV1 channels have been used as model systems (P. Geppetti and M. Trevisani, Activation and sensitisation of the vanilloid receptor: role in gastrointestinal inflammation and function, British Journal of Pharmacology, 2004, volume 141, pages 1313-1320);
HEK TRexTRPV1 cultured in DMEM, 10% Fetal Bovine Serum, 2 mM L-glutamine, 10 microgramg/m1 Blasticidin (Calbiochem, San Diego Calif.), […] Zeocin (InvivoGen, San Diego Calif.), followed by inducing indicated transgene expression using 1 microgram/ml Tetracycline for 16-24 hrs. Comparisons made to untransfected HEK cells or HEKTRexTRPV1 with or without induction.
[…] Cells transferred to 96-well plates at 50,000 cells/well and stimulated as indicated. Calcium signals acquired using a Flexstation 3 (Molecular Devices, Sunnydale, USA). Data are analyzed according to the methods in I. Diaz-Franulic, J. Caceres-Molina, R. V. Sepulveda, F. Gonzalez-Nilo, R. Latorre, Structure-Driven Pharmacology of Transient Receptor Potential Channel Vanilloid 1, Molecular Pharmacology, 2016, volume 90, pages 300-8. […]

CB1 receptors = CB1 receptors (Homo sapiens, UniProt P21554); details: cited from earlier work
CB1 receptors, sequence (P21554 whole entry): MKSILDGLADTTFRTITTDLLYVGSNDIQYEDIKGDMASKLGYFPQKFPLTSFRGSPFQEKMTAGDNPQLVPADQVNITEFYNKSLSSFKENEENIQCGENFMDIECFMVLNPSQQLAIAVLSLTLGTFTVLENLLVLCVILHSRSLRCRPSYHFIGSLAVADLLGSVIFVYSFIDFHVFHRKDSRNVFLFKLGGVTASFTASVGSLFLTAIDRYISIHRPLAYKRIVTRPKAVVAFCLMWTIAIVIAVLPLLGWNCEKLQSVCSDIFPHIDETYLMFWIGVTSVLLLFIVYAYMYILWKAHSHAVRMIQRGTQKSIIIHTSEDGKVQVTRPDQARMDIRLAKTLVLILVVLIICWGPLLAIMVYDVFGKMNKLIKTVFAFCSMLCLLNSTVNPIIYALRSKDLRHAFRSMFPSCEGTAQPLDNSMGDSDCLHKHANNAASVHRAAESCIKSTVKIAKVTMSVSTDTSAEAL

CB2 = CB2 (Homo sapiens, UniProt P34972); details: background statement with literature references; cited from earlier work
CB2, sequence (P34972 whole entry, species assumed): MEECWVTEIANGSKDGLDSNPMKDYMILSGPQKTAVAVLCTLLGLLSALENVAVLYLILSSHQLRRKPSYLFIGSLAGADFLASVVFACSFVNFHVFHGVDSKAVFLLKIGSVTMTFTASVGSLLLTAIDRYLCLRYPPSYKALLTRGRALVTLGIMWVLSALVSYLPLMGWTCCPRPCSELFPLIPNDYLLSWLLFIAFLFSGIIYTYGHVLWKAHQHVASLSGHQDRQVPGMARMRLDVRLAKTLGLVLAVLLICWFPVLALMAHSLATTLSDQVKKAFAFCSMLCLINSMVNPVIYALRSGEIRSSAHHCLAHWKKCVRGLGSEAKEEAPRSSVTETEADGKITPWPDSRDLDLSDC

[1] = background statement with literature references

| SMILES | biological finger print and dose response on TRPV1 channels (calcium signal), synthesized vs reference standard cannabidiol (TRPV1 channels) | CB1 receptor modulation (kind of action) (CB1 receptors; [1]) | CB2 receptor modulation (kind of action) (CB2) | CB1 receptor modulation (kind of action) (CB1 receptors) |
| --- | --- | --- | --- | --- |
| C=C(C)[C@@H]1CCC(C)=C[C@H]1c1c(O)cc(CCCCC)cc1O [cannabidiol (11, CBD), Cannabidiol] | same “biological finger print” and dose response | do not interact significantly | do not interact significantly | – |
| C=C(C)[C@@H]1CCC(C)=C[C@H]1c1c(O)cc(CCC)cc1O [cannabidivarin (12), cannabidivarin] | – | do not interact significantly | do not interact significantly | – |
| CCCc1cc(O)c2c(c1)OC(C)(C)[C@@H]1CCC(C)=C[C@@H]21 [tetrahydrocannabivarin (9), tetrahydrocannabivarin] | – | weak antagonist | modest agonists | – |
| CCCCCc1cc(O)c2c(c1)OC(C)(C)c1ccc(C)cc1-2 [cannabinol (10), cannabinol] | – | – | modest agonists | weak agonist |
